# Test results as given in patent US20080058208A1, “5,6-Cycloalkyl-7-Aminotriazolopyrimidines, their Preparation and their Use for Controlling Harmful Fungi, and Compositions Comprising these Compounds” (BASF Aktiengesellschaft, priority 2004, published 2008).
# Columns and labels:
# Pythium species = assay: Activity against Pythium species in the microtiter test; format: cell-based; settings: 125 ppm; zoospore suspension; 18° C.; absorption at 405 nm on seventh day after inoculation
# Phytophthora infestans = format: cell-based; settings: 125 ppm; sporangia suspension; 18° C.; absorption at 405 nm on seventh day after inoculation
structure (smiles),measurement,setting,value
"Nc1c2c(nc3ncnn13)CCCC2 [I-2, 5,6,7,8-tetrahydro-[1,2,4]triazolo[5,1-b]quinazolin-9-ylamine]","relative growth of the pathogens, % of that of the untreated control",Pythium species,7%
same,"relative growth of the pathogens, % of that of the untreated control",Phytophthora infestans,6%
